This note sets out measurements from US20240299420A1, “TETRACYCLINE DERIVATIVE-INDUCED MITOHORMESIS MEDIATES DISEASE TOLERANCE AGAINST VIRAL INFECTIONS” (priority 2021, published 2024).

The subject of the first experiment is E. coli. The experiment in a line: Minimum inhibitory concentration (MIC) of bacterial growth. The conditions noted are these: compared with Dox. It counts as cell-based.
Regarding 8-bromo sancycline, the “MIC for E. coli” value was “significantly higher MIC”. Turning to “7,9-bis(2,6-difluoro-4-pyridynyl)-sancycline [7,9-bis3POyr26 diF dox]”, the “MIC for E. coli” value is recorded as “significantly higher MIC”.

For a further experiment, the system named is hsp-6::gfp reporter (UPR^mt).
Assay: not given
Format: in vivo, Caenorhabditis elegans. The conditions noted are these: 68 µM, 9-TB at 17 μM.
Consider `CN(C)c1cc(NC(=O)CNC(C)(C)C)c(O)c2c1C[C@H]1C[C@H]3[C@H](N(C)C)C(O)=C(C(N)=O)C(=O)[C@@]3(O)C(O)=C1C2=O` [Tygacil ™, reference compound], for which the “UPR^mt activation (hsp-6::gfp reporter)” value is given as “did not activate”. The same measure, in the same setting: the entry for Omadacycline [reference compound] is “did not activate”. The same measure, in the same setting: as for `CN(C)c1ccc(O)c2c1C[C@H]1C[C@H]3[C@H](N(C)C)C(O)=C(C(N)=O)C(=O)[C@@]3(O)C(O)=C1C2=O` [minocycline, reference compound], the entry is “did not activate”.

The same experiment, now with this note: UPR^mt induction, C. elegans hsp-6::gfp reporter; compounds at 68 µM.
For `CN(C)c1cc(NC(=O)CN2CCCC2)c(O)c2c1C[C@H]1C[C@H]3[C@H](N(C)C)C(O)=C(C(N)=O)C(=O)[C@@]3(O)C(O)=C1C2=O` [9-(pyrrolidinyl-methylcarbonyl) aminominocycline], the “Activity in Worm Assay” value was “inactive”. On the same count and under the same terms, as for `CN(C)c1ccc(O)c2c1C[C@H]1C[C@H]3CC(O)=C(C(N)=O)C(=O)[C@@]3(O)C(O)=C1C2=O` [4-dedimethylamino minocycline], the entry is “inactive”; as for `CN(C)[C@@H]1C(O)=C(C(N)=O)C(=O)[C@@]2(O)C(O)=C3C(=O)c4c(ccc(C(C)(C)C)c4O)C[C@H]3C[C@@H]12` [9-tert-butyl sancycline], “inactive”; as for `CN(C)c1cc(-c2ccc(C(=O)O)s2)c(O)c2c1C[C@H]1C[C@H]3[C@H](N(C)C)C(O)=C(C(N)=O)C(=O)[C@@]3(O)C(O)=C1C2=O` [9-(4′-carboxy-1′-thiophene) minocycline], “inactive”. The same measure, in the same setting: as for `CCOC(=O)/C=C/c1ccc2c(c1O)C(=O)C1=C(O)[C@]3(O)C(=O)C(C(N)=O)=C(O)[C@@H](N(C)C)[C@@H]3[C@@H](O)[C@@H]1[C@H]2C` [9-ethylacrylate doxycycline], the entry is “slight”; as for `NC(=O)C1=C(O)C[C@@H]2C[C@@H]3Cc4ccc(N)c(O)c4C(=O)C3=C(O)[C@]2(O)C1=O` [4-dedimethyl-amino-9-amino sancycline], “inactive”. As for `CN(C)[C@@H]1C(O)=C(C(N)=O)C(=O)[C@@]2(O)C(O)=C3C(=O)c4c(O)cccc4[C@@](C)(O)[C@H]3[C@H](O)[C@@H]12` [oxytetracycline, reference compound], the “Activity in Worm Assay” value is recorded as “slight”. On the same count and under the same terms, the entry for `CN(C)c1cc(NC(=O)CNC(C)(C)C)c(O)c2c1C[C@H]1C[C@H]3[C@H](N(C)C)C(O)=C(C(N)=O)C(=O)[C@@]3(O)C(O)=C1C2=O` [Tygacil ™, reference compound] is “slight”; for `CN(C)[C@@H]1C(O)=C(C(N)=O)C(=O)[C@@]2(O)C(O)=C3C(=O)c4c(O)cccc4S[C@H]3C[C@@H]12` [Thiatetracycline, reference compound] it is “inactive”. Same read-out and setting: the entry for `CN(C)[C@@H]1C(O)=C(C(N)=O)C(=O)[C@@]2(O)C(O)=C3C(=O)c4c(O)ccc(-c5ccc(F)cc5)c4C[C@H]3C[C@@H]12` [7-(4-fluoro-phenyl)sancycline] is “inactive”; for `CN(C)[C@@H]1C(O)=C(C(N)=O)C(=O)[C@@]2(O)C(O)=C3C(=O)c4c(O)cccc4C(CSc4ccccc4)[C@H]3[C@H](O)[C@@H]12` (some centres unmarked) [13-thiophenyl dihydro methacycline] it is “slight”. The same measure, in the same setting: as for `C=C1C(=O)c2c(O)ccc(N(C)C)c2C[C@H]1C[C@H](C)[C@@H](C)N(C)C` [2N-1,1′-dimethylbutane minocycline], the entry is “slight”; as for `CCCCc1ccc(O)c2c1C[C@H]1C[C@H]3[C@H](N(C)C)C(O)=C(C(N)=O)C(=O)[C@@]3(O)C(O)=C1C2=O` [7-butyl sancycline], “slight”; as for `CC(=O)Nc1ccc2c(c1O)C(=O)C1=C(O)[C@]3(O)C(=O)C(C(N)=O)=C(O)[C@@H](N(C)C)[C@@H]3[C@@H](O)[C@@H]1[C@H]2C` [9-acetylamino doxycycline], “inactive”. Take `CN(C)c1ccc(O)c2c1C[C@H]1C[C@H]3[C@H](N(C)C)C(O)=C(C(N)=O)C4=NNC(O)(C1C2=O)[C@]43O` (some centres unmarked) [1,12-hydroxypyrazolo minocycline]: the “Activity in Worm Assay” value was “inactive”. Still for that read-out and setting: as for `COc1ccc(/C=C2\c3cccc(O)c3C(=O)C3=C(O)[C@]4(O)C(=O)C(C(N)=O)=C(O)[C@@H](N(C)C)[C@@H]4[C@@H](O)[C@@H]32)cc1` [13-(4′-methoxyphenyl) methacycline], the entry is “slight”; as for `CN(C)c1ccc(O)c2c1C[C@H]1C[C@H]3[C@H](N(C)C)C(O)=C(C#N)C(=O)[C@@]3(O)C(O)=C1C2=O` [2N nitrile minocycline], “inactive”.

With `CC(C)SCC1c2cccc(O)c2C(=O)C2=C(O)[C@]3(O)C(=O)C(C(N)=O)=C(O)[C@@H](N(C)C)[C@@H]3[C@@H](O)[C@@H]21` (some centres unmarked) [13-isopropylthio dihydro methacycline], the “Activity in Worm Assay” value is on record as “slight”. Same read-out and setting: the entry for `CN(C)[C@@H]1C(O)=C(C(N)=O)C(=O)[C@@]2(O)C(O)=C3C(=O)c4c(O)cccc4/C(=C\c4ccc(Br)cc4)[C@H]3[C@H](O)[C@@H]12` [13-(4′-bromophenyl) methacycline] is “slight”. Consider `CCCCCC(=O)O[C@H]1[C@H]2C(=C(O)[C@]3(O)C(=O)C(C(N)=O)=C(O)[C@@H](N(C)C)[C@H]13)C(=O)c1c(O)cccc1[C@@H]2C` [5-hexanoate doxycycline], for which the “Activity in Worm Assay” value is reported as “slight”.

For the molecule `CCc1cc(N(C)C)c2c(c1O)C(=O)C1=C(O)[C@]3(O)C(=O)C(C(N)=O)=C(O)[C@@H](N(C)C)[C@@H]3C[C@@H]1C2` [9-ethyl minocycline], the “Activity in Worm Assay” value was “inactive”. With `CN(C)c1ccc(O)c2c1C[C@H]1C[C@H]3[C@H](N(C)C)C(O)=C(C(N)=O)C(=O)[C@@]3(O)C3NN=C2C31` (some centres unmarked) [11,12-pyrazolo minocycline], the “Activity in Worm Assay” value was “inactive”.

With `CN(C)[C@@H]1C(O)=C(C(N)=O)C(=O)[C@@]2(O)C(O)=C3C(=O)c4c(O)cccc4C(CSC4CCCC4)[C@H]3[C@H](OC(=O)C3CCCC3)[C@@H]12` (some centres unmarked) [5-cyclopentanoate-13-cyclopentylthio dihydro methacycline], the “Activity in Worm Assay” value is “slight”. As to Omadacycline [reference compound], the “Activity in Worm Assay” value was “inactive”. In the case of `CN(C)[C@@H]1C(O)=C(C(N)=O)C(=O)[C@@]2(O)C(O)=C3C(=O)c4c(O)cccc4C(CSC4CCCC4)[C@H]3[C@H](O)[C@@H]12` (some centres unmarked) [13-cyclopentylthio dihydro methacycline], the “Activity in Worm Assay” value is given as “slight”. For `CN(C)c1ccc(OS(=O)(=O)C(F)(F)F)c2c1C[C@H]1C[C@H]3[C@H](N(C)C)C(O)=C(C(N)=O)C(=O)[C@@]3(O)C(O)=C1C2=O` [10-triflate minocycline], the “Activity in Worm Assay” value is “inactive”. The same measure, in the same setting: the entry for `CN(C)c1cc(N)c(O)c2c1C[C@H]1C[C@H]3CC(O)=C(C(N)=O)C(=O)[C@@]3(O)C(O)=C1C2=O` [4-dedimethylamino-9-aminominocycline] is “inactive”. In the case of `C[C@H]1c2cccc(O)c2C(=O)C2=C(O)[C@]3(O)C(=O)C(C#N)=C(O)[C@@H](N(C)C)[C@@H]3[C@@H](O)[C@@H]21` [2N-nitrile doxycycline], the “Activity in Worm Assay” value is “inactive”. As to 4-oxime minocycline, the “Activity in Worm Assay” value is “inactive”. Take `CN(C)c1cc(-c2sccc2C(=O)O)c(O)c2c1C[C@H]1C[C@H]3[C@H](N(C)C)C(O)C(C(N)=O)C(=O)[C@@]3(O)C(O)=C1C2=O` (some centres unmarked) [9-(2′carboxy-1′-thiophene) minocycline]: the “Activity in Worm Assay” value was “inactive”.

Regarding `CCC(=O)O[C@H]1[C@H]2C(=C(O)[C@]3(O)C(=O)C(C(N)=O)=C(O)[C@@H](N(C)C)[C@H]13)C(=O)c1c(O)cccc1[C@@H]2C` [5-propionate doxycycline], the “Activity in Worm Assay” value was “inactive”.

Regarding `CCc1ccc2c(c1O)C(=O)C1=C(O)[C@]3(O)C(=O)C(C(N)=O)=C(O)[C@@H](N(C)C)[C@@H]3[C@@H](O)[C@@H]1[C@H]2C` [9-ethyl doxycycline], the “Activity in Worm Assay” value is “inactive”. Turning to `CN(C)[C@@H]1C(O)=C(C(N)=O)C(=O)[C@@]2(O)C(O)=C3C(=O)c4c(O)ccc(Cl)c4[C@@H](O)[C@H]3C[C@@H]12` [demeclocycline, reference compound], the “Activity in Worm Assay” value is recorded as “slight”.

As to `CN(C)[C@@H]1C(O)=C(C(N)=O)C(=O)[C@@]2(O)C(O)=C3C(=O)c4c(O)ccc(/C=C/c5ccccc5)c4C[C@H]3C[C@@H]12` [7-(1-styrylphenyl) sancycline], the “Activity in Worm Assay” value was “inactive”. On the same count and under the same terms, the entry for `CN(C)c1ccc(O)c2c1C[C@H]1C[C@H]3[C@H](N(C)C)C(O)=C(C(N)=O)C(=O)[C@@]3(O)C(O)=C1C2=O` [minocycline, reference compound] is “inactive”. `CN(C)[C@@H]1C(O)=C(C(N)=O)C(=O)[C@@]2(O)C(O)=C3C(=O)c4c(O)ccc(C5CCCC5)c4C[C@H]3C[C@@H]12` [7-cyclopentyl sancycline]: the “Activity in Worm Assay” value was “inactive”. As to `CN(C)c1cc(NC(=O)Nc2cc(C(F)(F)F)cc(C(F)(F)F)c2)c(O)c2c1C[C@H]1C[C@H]3[C@H](N(C)C)C(O)=C(C(N)=O)C(=O)[C@@]3(O)C(O)=C1C2=O` [9-(3,5-trifluoromethyl-phenylurea) aminominocycline], the “Activity in Worm Assay” value is “inactive”.

As for 11,12-pyrazolo doxycycline, the “Activity in Worm Assay” value was “inactive”.

The experiment is the same for the next values; noted with them: summary of screen of 51 tetracycline derivatives.
For the molecule 8-bromo sancycline, the “induction of MSR and in particular mitohormesis” value is recorded as “strongly induce MSR”. Take “7,9-bis(2,6-difluoro-4-pyridynyl)-sancycline [7,9-bis3POyr26 diF dox]”: the “induction of MSR and in particular mitohormesis” value was “strongly induce MSR”.

For another experiment, the system named is P. aeruginosa. Description: Minimum inhibitory concentration (MIC) of bacterial growth. Format: cell-based. The conditions noted are these: compared with Dox.
For 8-bromo sancycline, the “MIC for P. aeruginosa” value is given as “significantly higher MIC”. Still for that read-out and setting: the entry for “7,9-bis(2,6-difluoro-4-pyridynyl)-sancycline [7,9-bis3POyr26 diF dox]” is “significantly higher MIC”.
